Calls of active or inactive are those of the source.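 The calls were made as follows: active = a tumour-causing dose and a tumour site recorded for mice in at least one sex group; inconclusive = only government mouse studies exist and were judged inadequate; inactive = mouse studies exist but none gave tumours.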
System: mouse carcinogenicity bioassay, TD50 from CPDB
Assay: DSSTox (CPDBAS) Carcinogenic Potency Database Summary Mouse Bioassay Results
Text: The Carcinogenic Potency Database (CPDB) is a unique and widely used international resource of the results of over 6500 chronic, long-term animal cancer tests on over 1500 chemical substances. The CPDB provides easy access to the bioassay literature, with qualitative and quantitative analyses of both positive and negative experiments that have been published over the past 50 years in the general literature and by the National Cancer Institute/National Toxicology Program. The CPDB standardizes the diverse literature of cancer bioassays that vary widely in protocol, histopathological examination and nomenclature, and in the published author's choices of what information to provide in their papers. Results are reported in the CPDB for tests in rats, mice, hamsters, dogs, and nonhuman primates, and are based on the most positive result among all experiments for each sex-species. The DSSTox CPDBAS (all species) file incorporates data from the CPDB Summary Tables for the full list of over 1500 chemical substances tested in at least one species. Summary bioassay results for Mouse (TD50, tumor sites, male, female, both sexes) are provided in the CPDB Summary Tables and the DSSTox CPDBAS file for over 1000 chemical substances.
TD50 is a standardized quantitative measure of carcinogenic potency (analogous to an LD50) and is reported in the CPDB Summary Table for each species. Activity Score for actives is computed by mapping of LOG10 (1/TD50_Mouse_mmol) activity values spanning range [MIN, MAX] onto Integer 1-100 Activity Score range, where 100 is highest potency and 1 is lowest: Activity Score = 100 * INTEGER[(log10(1/Activity) - MIN)/(MAX […] MIN)]. If activity is reported but no TD50_Mouse_mmol value is computed, such as for a mixture, the Activity Score is assigned the activity value "50". […] Target sites are reported for each sex-species group with a positive result in the CPDB on the basis of a positive author's opinion for the particular site, using all results from both the general literature and NCI/NTP bioassays. If a chemical has two or more target sites listed, the results may be from different experiments, and a single site may be a target organ in more than one experiment, as well. Blank entry in TargetSites field indicates no results reported.

[1] = TargetSites_Mouse_BothSexes: no positive results
[2] = TD50_Mouse_Note: positive test results only by intraperitoneal or intravenous injection, TargetSites_Mouse_Female: hematopoietic system
[3] = TD50_Mouse_Note: no positive results, TargetSites_Mouse_Female: no positive results
[4] = TD50_Mouse_Note: TD50 is harmonic mean of more than one positive test, TargetSites_Mouse_Female: liver, lung, stomach
[5] = TargetSites_Mouse_Female: no positive results
[6] = TD50_Mouse_Note: TD50 is harmonic mean of more than one positive test, TargetSites_Mouse_Female: liver, vascular system
[7] = TD50_Mouse_Note: TD50 is harmonic mean of more than one positive test, TargetSites_Mouse_Female: liver
[8] = TargetSites_Mouse_Female: liver
[9] = TD50_Mouse_Note: no positive results, TargetSites_Mouse_Female: NTP bioassay inadequate
[10] = TD50_Mouse_Note: TD50 is harmonic mean of more than one positive test, TargetSites_Mouse_Female: lung
[11] = TD50_Mouse_Note: TD50 is harmonic mean of more than one positive test, TargetSites_Mouse_Female: liver, lung

CN(C)/N=N/c1nc[nH]c1C(N)=O
Potency (TD50_Mouse_Note: positive test results only by intraperitoneal or intravenous injection, TD50 is harmonic mean of more than one positive, TargetSites_Mouse_Female: hematopoietic system, lung, uterus, vascular system): 0.0053 mmol/kg/day

COc1cc(NC(=O)C(N=Nc2ccc(-c3ccc(N=NC(C(C)=O)C(=O)Nc4cc(OC)c(Cl)cc4OC)c(Cl)c3)cc2Cl)C(C)=O)c(OC)cc1Cl (centres undefined)
outcome [1]: inactive

CC1=C[C@H]2[C@@]3(O)[C@H](C)[C@@H](O)[C@]4(O)[C@H]([C@@H]3C=C(CO)C[C@]2(O)C1=O)C4(C)C
Potency [2]: 0.00606 mmol/kg/day

CNC(=S)N(C)C
outcome [3]: inactive; no positive results

Nc1c(Br)cc(Br)c2c1C(=O)c1ccccc1C2=O
Potency [4]: 1.25 mmol/kg/day

Cc1ccc(NC(N)=O)cc1
Potency [5]: 1.37 mmol/kg/day

CCC(O)OC(O)CC (centres undefined)
outcome [3]: inactive; no positive results

CC(=O)N[C@@H](CC(C)C)C(=O)N[C@@H](CC(C)C)C(=O)N[C@H](C=O)CCCN=C(N)N
Potency [5]: 0.131 mmol/kg/day

Clc1ccc2c(c1)Oc1ccc(Cl)cc1O2
outcome [3]: inactive; no positive results

OO
Potency (TargetSites_Mouse_Female: small intestine): 222 mmol/kg/day

O=C1CCCCCN1
outcome [3]: inactive; no positive results

C=CCOC(=O)CC(C)C
Potency (TargetSites_Mouse_Female: hematopoietic system): 0.442 mmol/kg/day

Cl/C=C/CCl
Potency (TargetSites_Mouse_Female: lung, stomach, urinary bladder): 0.447 mmol/kg/day | Potency [5]: 1.06 mmol/kg/day

CCOP(=S)(OCC)SC1OCCOC1SP(=S)(OCC)OCC (centres undefined)
outcome [3]: inactive; no positive results

O=C(O)COc1ccc(Cl)cc1Cl
outcome [3]: inactive; no positive results

CC1=C(C(=O)OCCN(Cc2ccccc2)c2ccccc2)C(c2cccc([N+](=O)[O-])c2)C(P2(=O)OCC(C)(C)CO2)=C(C)N1 (centres undefined)
outcome [3]: inactive; no positive results

CN(N)C=O
Potency (TD50_Mouse_Note: TD50 is harmonic mean of more than one positive test, greater than ten-fold variation among TD50 values for positive res, TargetSites_Mouse_Female: gall bladder, liver, lung, vascular system): 0.0185 mmol/kg/day

Oc1c(Cl)c(Cl)c(Cl)c(Cl)c1Cl
Potency (TD50_Mouse_Note: TD50 is harmonic mean of more than one positive test, TargetSites_Mouse_Female: adrenal gland, liver, vascular system): 0.0901 mmol/kg/day | Potency [6]: 0.0864 mmol/kg/day | outcome [3]: inactive

CCCCC1C(=O)N(c2ccccc2)N(c2ccccc2)C1=O
Potency [5]: 1.14 mmol/kg/day

Cn1c(N)nc2c3cccnc3ccc21
Potency [4]: 0.0989 mmol/kg/day

CC(C)Nc1nc(Cl)nc(NC(C)C)n1
outcome [3]: inactive; no positive results

CCCCCCc1ccc(O)cc1O
outcome [3]: inactive; no positive results

Nc1ccc(N)c2c1C(=O)c1c(N)ccc(N)c1C2=O
outcome [3]: inactive; no positive results

Cc1ccc(N)cc1N
Potency [7]: 1.04 mmol/kg/day | Potency [8]: 0.219 mmol/kg/day

Nc1ccc(NCCO)c([N+](=O)[O-])c1
outcome [9]: inactive; no positive results

C=Cc1cccc(C)c1
outcome [3]: inactive; no positive results

Cc1ccccc1
outcome [3]: inactive; no positive results

C[C@]12CC[C@H](OS(=O)(=O)O)CC1=CC[C@@H]1[C@@H]2CC[C@]2(C)C(=O)CC[C@@H]12
outcome [3]: inactive; no positive results

O=C1CN=C(c2ccccc2)c2cc(Cl)ccc2N1CC1CC1
outcome [3]: inactive; no positive results

S=C(SSSSSSC(=S)N1CCCCC1)N1CCCCC1
outcome [3]: inactive; no positive results

S=[Se]
Potency (TargetSites_Mouse_Female: liver, lung): 0.624 mmol/kg/day

O=c1[nH]c(=O)n(C2CCCO2)cc1F (centres undefined)
outcome [3]: inactive; no positive results

c1ccccc1
Potency (TD50_Mouse_Note: TD50 is harmonic mean of more than one positive test, greater than ten-fold variation among TD50 values for positive res, TargetSites_Mouse_Female: ear Zymbals gland, hematopoietic system, lung, mammary gland, ovary): 0.992 mmol/kg/day

O=S(=O)(Oc1ccc(Cl)cc1)c1ccc(Cl)cc1
outcome [3]: inactive; no positive results

O=C1NS(=O)(=O)c2ccccc21
outcome [3]: inactive; no positive results

NC(=O)c1cnccn1
outcome [9]: inactive; no positive results

O=C(O)C1[O][Sb]2[O]C(=O)C([O]2)C(C(=O)O)[O][Sb]2[O]C(=O)C1[O]2 (centres undefined)
outcome [1]: inactive

CCOC(=O)CC(SP(=O)(OC)OC)C(=O)OCC (centres undefined)
outcome [3]: inactive; no positive results

O=C1NCCN1
outcome [3]: inactive; no positive results

CCc1nc(N)nc(N)c1-c1ccc(Cl)cc1
outcome [3]: inactive; ntp bioassay inadequate

COc1ccc(N)c(OC)c1
outcome [3]: inactive; no positive results

O=c1cc[nH]c(=S)[nH]1
Potency [7]: 0.429 mmol/kg/day

CN[C@H]1CC[C@@H](c2ccc(Cl)c(Cl)c2)c2ccccc21
outcome [3]: inactive; no positive results

Cc1cc(OC(=O)N(C)C)n(C(C)C)n1
outcome [3]: inactive; no positive results

C[C@]12CC[C@@H]3c4ccc(O)cc4CC[C@H]3[C@@H]1CC[C@@H]2O
outcome [3]: inactive

Cc1cccc2ccccc12
outcome [3]: inactive; no positive results

CN(N=O)c1ncnc2nc[nH]c12
Potency [5]: 0.101 mmol/kg/day

Cc1cccc(N)c1
Potency (TD50_Mouse_Note: no positive results are statistically significant, TargetSites_Mouse_Female: no positive results): 10 mmol/kg/day

C1N2CN3CN1CN(C2)C3
outcome [3]: inactive; no positive results

COc1ccc([N+](=O)[O-])cc1N
Potency [8]: 22.1 mmol/kg/day

ClCOCc1ccc(COCCl)cc1
Potency (TD50_Mouse_Note: positive test results only by intraperitoneal or intravenous injection, TargetSites_Mouse_Female: peritoneal cavity): 0.0132 mmol/kg/day

Cn1cc(C(=O)O)c(=O)c2ccc(/C=C/c3ccc([N+](=O)[O-])o3)nc21
Potency (TargetSites_Mouse_BothSexes: hematopoietic system, lung, stomach): 0.0212 mmol/kg/day

CC(CN1CC(=O)NC(=O)C1)N1CC(=O)NC(=O)C1 (centres undefined)
Potency [2]: 0.0883 mmol/kg/day

O=C1NC(=O)C(c2ccccc2)(c2ccccc2)N1
Potency [8]: 0.234 mmol/kg/day

O.O.O.O.O.O.O.O=S(=O)([O-])[O-].[Co+2]
Potency [10]: 0.00269 mmol/kg/day

CN(C)CCC(c1ccc(Cl)cc1)c1ccccn1 (centres undefined)
outcome [3]: inactive; no positive results

OC(Cn1cncn1)(Cn1cncn1)c1ccc(F)cc1F
outcome [3]: inactive; no positive results

FC(F)(Cl)Cl
outcome [3]: inactive; no positive results

ClCC1CO1 (centres undefined)
outcome [3]: inactive

NNc1ccc(C(=O)O)cc1
Potency (TD50_Mouse_Note: TD50 is harmonic mean of more than one positive test, TargetSites_Mouse_Female: vascular system): 2.97 mmol/kg/day | outcome [3]: inactive

COc1ccc(CCN2CCC(Nc3nc4ccccc4n3Cc3ccc(F)cc3)CC2)cc1
outcome [3]: inactive; no positive results

CCCCC(CC)COC(=O)CCCCC(=O)OCC(CC)CCCC (centres undefined)
Potency [7]: 10.5 mmol/kg/day

ClC(Cl)C(Cl)(Cl)Cl
Potency [7]: 0.283 mmol/kg/day

O=S(=O)(c1ccc(Cl)cc1)c1ccc(Cl)cc1
outcome [3]: inactive; no positive results

O=C1OC(c2ccc(O)cc2)(c2ccc(O)cc2)c2ccccc21
Potency (TD50_Mouse_Note: TD50 is harmonic mean of more than one positive test, TargetSites_Mouse_Female: hematopoietic system, ovary): 3.68 mmol/kg/day

Cc1ccc([N+](=O)[O-])cc1N
Potency [6]: 1.82 mmol/kg/day

Cc1cc(N=Nc2ccccc2C)ccc1N
outcome (TD50_Mouse_Note: no positive results): inactive; no positive results

Cc1cc(C)c(N)cc1C
Potency [11]: 0.265 mmol/kg/day | Potency [8]: 0.0453 mmol/kg/day

CC(C)O
outcome [3]: inactive; no positive results

C=CCNNCC=C
Potency [10]: 0.183 mmol/kg/day

c1ccc2[nH]c(-c3cscn3)nc2c1
outcome [3]: inactive; no positive results

CO[C@H]1/C=C/O[C@@]2(C)Oc3c(C)c(O)c4c(O)c(c(/C=N/N5CCN(C)CC5)c(O)c4c3C2=O)NC(=O)/C(C)=C\C=C\[C@H](C)[C@H](O)[C@@H](C)[C@@H](O)[C@@H](C)[C@H](OC(C)=O)[C@@H]1C
Potency [8]: 0.0408 mmol/kg/day

C=CC
outcome [3]: inactive; no positive results

CC(C)(C)O
Potency (TargetSites_Mouse_Female: thyroid gland): 295 mmol/kg/day

O=C(O)c1ccc(N=Nc2ccc(O)c(C(=O)O)c2)cc1
outcome [3]: inactive; no positive results

COc1ccc(N)cc1
outcome [3]: inactive; no positive results

CCCC(Cl)CCC(Cl)CCC(Cl)CCC(Cl)CCC(Cl)CCC(Cl)CCC(C)Cl (centres undefined)
Potency [5]: 11.6 mmol/kg/day

C[N+](=O)[O-]
Potency (TD50_Mouse_Note: TD50 is harmonic mean of more than one positive test, TargetSites_Mouse_Female: harderian gland, liver, lung): 7.68 mmol/kg/day

CCOc1ccc(NC(=O)CC(C)O)cc1 (centres undefined)
outcome (TD50_Mouse_Note: TD50_Mouse_mmol was not calculated for this mixture, but Activiity Score is assigned value of 50 to indicate active, TargetSites_Mouse_Female: no positive results): active; kidney

ClC1C(Cl)C(Cl)C(Cl)C(Cl)C1Cl (centres undefined)
Potency [7]: 0.0956 mmol/kg/day | Potency [11]: 0.106 mmol/kg/day | Potency (TD50_Mouse_Note: TD50 is harmonic mean of more than one positive test, harmonic mean of TD50 includes a value for upper 99% confidence li, TargetSites_Mouse_Female: liver): 0.0509 mmol/kg/day | Potency (TD50_Mouse_Note: TD50 value is overestimated as upper 99% confidence limit from study with 100% tumor incidence but no lifetable, harmoni): 0.0228 mmol/kg/day

From PubChem BioAssay AID1199 (EPA DSSTox, 2008)
